Tested on: NativeSkin® human skin tissues
Assay: Gene expression assay (Genemarkers Standard Skin Panel, qPCR) in ex vivo skin
Type: cell-based
Settings: 24 hrs, N=4
Experimental: This study was conducted to determine how different concentrations (0.316 μM-10.0 mM) of xanthommatin influences gene expression in ex vivo NativeSkin® human skin tissues (purchased from Genoskin). NativeSkin® human skin models hold normal skin barrier function, a mature stratum corneum, a functional basal layer and all cell types and skin appendages of in vivo human skin.
Gene expression was assessed using Genemarkers Standard Skin Panel, a qPCR-based gene expression panel which contains 107 target genes potentially relevant in skin biology and 5 endogenous control genes. Gene expression was assessed 24 hrs following application of the test material to the skin tissues.
Formulation design. A gel containing either 0.1% or 0.4% (Table 1) by mass percentage of ammonium xanthommatin (Xa) was prepared. Phase A was initiated by adding 0.3 wt % of carbomer into the water without stirring. Next, the solution was heated to 75° C. with mixing to allow the carbomer to disperse throughout the mixture before ammonium xanthommatin was slowly added and allowed to mix for full dissolution. In a separate reaction vessel, Phase B was created with glycerin (3.5%) and phenoxyethanol (0.95%) and mixed well. Phase B was then added to Phase A. The final phase (Phase C), containing 4% deionized water and 0.4% sodium hydroxide, was added to the main phase for neutralization. The gel was then cooled to room temperature.
Tissue equilibration. Native tissues (Genoskin) were equilibrated overnight at 37° C. with 5% CO2 and ˜95% relative humidity. The following day, the equilibrium medium was removed from each well and replaced with 1.0 mL of maintenance medium.
Treatment Media. Tissues were obtained from the abdomen of a person with Fitzpatrick type 2-3 skin. Genoskin facilities mounted 11 mm biopsies into Nativeskin tissue inserts which were used for genetic analysis 5 days later. N=4 biological replicates per treatment group. For WST-8 (−) control tissue (N=2), 10 μL of Triton X-100 (1%) was applied to the surface of the tissue; two untreated tissues served as the WST-8 control.
Tissue and medium collections. A 2 mm biopsy punch was taken from the center for the WST-8 assay. Remaining tissues were placed in a tube containing RNAlater preservative solutions. Tissues were incubated for 1-2 hrs until RNA was isolated. RNA was isolated using an RNeasy Mini kit (Qiagen) following the manufacturer's instructions. Each sample was vacuum concentrated to at least 200 ng/μL to provide sufficient amount of RNA for cDNA synthesis. RNA concentration and purity were determined using a Nanodrop 2000 spectrophotometer.
cDNA was generated using a High Capacity cDNA Synthesis Kit (Applied Biosystems) and was generated from 2000 ng RNA per sample for OpenArray processing. qPCR data quality and statistical analysis was assessed and performed on the raw data files using ThermoFisher Connect Software (Life Technologies). Statistical analysis was performed using the relative quantitation (RQ) method, where the Cq value of the target gene is normalized to the Cq value of an endogenous control gene (selected from one of GAPDH, GUSB, HPRT1, PPIA, and UBC) to generate the delta Cq values, which were used to normalize variability between the samples.
Statistical analysis. Unpaired t-tests were carried out using the ThermoFisher Connect software.

Q: Which “HAS2 (Hyaluronan synthase 2) gene expression, % Change” value (3.16 mM (0.1%) dose group) does the source give for `NC(CC(=O)c1cccc2oc3cc(=O)c4[nH]c(C(=O)O)cc(=O)c4c-3nc12)C(=O)O` (stereo not drawn) [ammonium xanthommatin] here?
A: The value was 74%.

Q: And the “HAS2 (Hyaluronan synthase 2) gene expression, FC (linear fold change)” value (3.16 mM (0.1%) dose group)?
A: Its value is 1.74.

Q: And the “HAS2 (Hyaluronan synthase 2) gene expression, Rq” value (3.16 mM (0.1%) dose group)?
A: The value was 1.74.

Q: And the “COL1A1 (collagen) gene expression, % Change” value (10 mM (0.4%) dose group)?
A: The value was 153%.

Q: What about the “COL1A1 (collagen) gene expression, FC (linear fold change)” value (10 mM (0.4%) dose group) of the same compound?
A: The value was 2.53.

Q: And the “COL1A1 (collagen) gene expression, Rq” value (10 mM (0.4%) dose group)?
A: The value was 2.525.

Q: What about the “COL3A1 (collagen) gene expression, % Change” value (10 mM (0.4%) dose group) of the same compound?
A: Its value is 137%.

Q: And the “COL3A1 (collagen) gene expression, FC (linear fold change)” value (10 mM (0.4%) dose group)?
A: Its value is 2.37.

Q: And the “COL3A1 (collagen) gene expression, Rq” value (10 mM (0.4%) dose group)?
A: The value was 2.37.

Q: And the “FOXO3 (subclass of the forkhead family of transcription factors) gene expression, % Change” value (10 mM (0.4%) dose group)?
A: Its value is 114%.

Q: What about the “FOXO3 (subclass of the forkhead family of transcription factors) gene expression, FC (linear fold change)” value (10 mM (0.4%) dose group) of the same compound?
A: Its value is 2.14.

Q: And the “FOXO3 (subclass of the forkhead family of transcription factors) gene expression, Rq” value (10 mM (0.4%) dose group)?
A: Its value is 2.142.

Q: And the “HSPG2 (Heparan Sulfate Proteoglycan 2) gene expression, % Change” value (10 mM (0.4%) dose group)?
A: Its value is 48%.

Q: And the “HSPG2 (Heparan Sulfate Proteoglycan 2) gene expression, FC (linear fold change)” value (10 mM (0.4%) dose group)?
A: The value was 1.48.

Q: And the “HSPG2 (Heparan Sulfate Proteoglycan 2) gene expression, Rq” value (10 mM (0.4%) dose group)?
A: The value was 1.477.

Q: And the “IGF1R (insulin-like growth factor 1) gene expression, % Change” value (10 mM (0.4%) dose group)?
A: Its value is 26%.

Q: And the “IGF1R (insulin-like growth factor 1) gene expression, FC (linear fold change)” value (10 mM (0.4%) dose group)?
A: Its value is 1.26.

Q: What about the “IGF1R (insulin-like growth factor 1) gene expression, Rq” value (10 mM (0.4%) dose group) of the same compound?
A: The value was 1.257.

Q: What about the “ITGB4 (Integrin alpha-6/beta-4 is a receptor for laminin) gene expression, % Change” value (10 mM (0.4%) dose group) of the same compound?
A: The value was 58%.

Q: And the “ITGB4 (Integrin alpha-6/beta-4 is a receptor for laminin) gene expression, FC (linear fold change)” value (10 mM (0.4%) dose group)?
A: The value was 1.58.

Q: And the “ITGB4 (Integrin alpha-6/beta-4 is a receptor for laminin) gene expression, Rq” value (10 mM (0.4%) dose group)?
A: Its value is 1.582.

Q: What about the “KRT14 (keratin 14) gene expression, % Change” value (10 mM (0.4%) dose group) of the same compound?
A: The value was 72%.

Q: And the “KRT14 (keratin 14) gene expression, FC (linear fold change)” value (10 mM (0.4%) dose group)?
A: Its value is 1.72.

Q: What about the “KRT14 (keratin 14) gene expression, Rq” value (10 mM (0.4%) dose group) of the same compound?
A: Its value is 1.721.

Q: What about the “MFN2 (mitofusin 2) gene expression, % Change” value (10 mM (0.4%) dose group) of the same compound?
A: Its value is 45%.

Q: And the “MFN2 (mitofusin 2) gene expression, FC (linear fold change)” value (10 mM (0.4%) dose group)?
A: The value was 1.45.

Q: And the “MFN2 (mitofusin 2) gene expression, Rq” value (10 mM (0.4%) dose group)?
A: Its value is 1.447.

Q: And the “POLG1/MDP1 (DNA Polymerase Gamma) gene expression, % Change” value (10 mM (0.4%) dose group)?
A: Its value is 71%.

Q: And the “POLG1/MDP1 (DNA Polymerase Gamma) gene expression, FC (linear fold change)” value (10 mM (0.4%) dose group)?
A: Its value is 1.71.

Q: What about the “POLG1/MDP1 (DNA Polymerase Gamma) gene expression, Rq” value (10 mM (0.4%) dose group) of the same compound?
A: Its value is 1.713.

Q: What about the “ST14 (Suppressor of tumorigenicity 14 protein) gene expression, % Change” value (10 mM (0.4%) dose group) of the same compound?
A: The value was 39%.

Q: What about the “ST14 (Suppressor of tumorigenicity 14 protein) gene expression, FC (linear fold change)” value (10 mM (0.4%) dose group) of the same compound?
A: The value was 1.39.

Q: What about the “ST14 (Suppressor of tumorigenicity 14 protein) gene expression, Rq” value (10 mM (0.4%) dose group) of the same compound?
A: Its value is 1.385.

— patent publication US20250228759A1, “ANTI-AGING COSMETIC COMPOSITIONS COMPRISING XANTHOMMATIN” (SEASPIRE, INC., priority 2021, published 2025)
